In US20090220621A1, “Pharmaceutical compositions of a non-enteric coated proton pump inhibitor with a carbonate salt and bicarbonate salt combination” (priority 2000, published 2009):
Several values for one entry are separate records, joined by “and”; a condition that tells them apart may be missing. Equal values may be shown once.

Columns and labels:
Format in all cases: physicochemical
[1] = Gas and CO2 generated by neutralization of simulated gastric fluid (Orsat apparatus, standard CO2 assay)
From the text: To quantify the gas produced by the neutralization of simulated gastric fluid ([…]) by carbicarb and by sodium bicarbonate in vitro, a standard CO2 assay technique was utilized (see USP 24-NF 19 Beta, The United States Pharmacopeia 2000, p. 306)
(§1) Aqueous solutions to be tested were made up from starting materials sodium carbonate, (anhydrous, available from Mallinckrodt) and sodium bicarbonate (available from Mallinckrodt). An 8.4% sodium bicarbonate solution and an 8.4% carbicarb solution (containing equimolar amounts of sodium bicarbonate and sodium carbonate) were tested as follows.
The specimen gas was generated by reacting either 450 mL simulated gastric fluid (SGF) with 50 mL of the carbicarb solution; or by reacting 45 ml of simulated gastric fluid with 5 ml of sodium bicarbonate solution in a 500 mL Erlenmeyer flask.
To make Simulated Gastric Fluid (SGF) 1 g sodium chloride was transferred to a 500-mL volumetric flask. After adding 1.6 g pepsin, 25 mL 2 N hydrochloric acid was added and swirled to mix. The resultant solution could then be diluted to the appropriate volume with water.
The amount of gas generated in a twenty-minute time period was measured in an Orsat Glass Vapor Absorption Apparatus, by the standard assay technique. Two tests were run for each solution. The volume of CO2 generated was calculated from the difference in the initial volume of gas produced (ml) and the final volume of gas remaining (ml).

[2] = Titration of simulated gastric fluid with acid neutralizer solution (gastric acid neutralizing capacity); details: 50 mL SGF
Experimental: To determine and compare the gastric acid neutralizing capacity of sodium bicarbonate solution to carbicarb solution, the following experiment was performed.
as §1
50 mL simulated gastric fluid (SGF, prepared according to the procedure described in Example 1) was pipetted into an Erlenmeyer flask. Four drops of methyl red, then four drops of phenolphthalein were then added to the flask. The pH of solution was monitored with a pH electrode. The solution to be tested was added to a 5-mL buret. The gastric media in the flask was then titrated with the test solution to an endpoint within 0.2 pH units of pH 6.5 (as indicated by the color change and pH reading). Then, titration was resumed, to an endpoint within 0.2 pH units of pH 8.0 (as indicated by the color change and pH reading).

[3] = Stability of lansoprazole in simulated gastric fluid with and without carbicarb (chromatographic assay); details: for % labeled amount of lansoprazole remaining: Sample in water; for % of the drug degraded: at 60 minutes in SGF
Experimental: Lansoprazole degrades in acid and is stable in base. This study was performed to determine 1) how quickly lansoprazole degrades in simulated gastric fluid (SGF); and 2) whether a high pH-buffering agent (carbicarb which is an equimolar mixture of sodium carbonate and sodium bicarbonate) could be used to retard the degradation of lansoprazole in SGF. All the experiments were conducted at room temperature (22° C.±2° C.).
The PPI test sample included lansoprazole (30 mg); mannitol (60 mg), meglumine (30 mg) and sodium hydroxide (3 mg).
Then 5.0 mL 2 N sodium hydroxide solution was added to the 0-minutes beaker with mixing. To each of the 5 remaining beakers, 10.0 mL of 8.4% carbicarb solution was added and stirred to mix. At the appropriate time interval (corresponding to the individual beaker numbers), 5.0 mL 2 N sodium hydroxide solution was added to stop the reaction. A portion of the resulting solution was diluted with pH 10 diluent. 10 μL of the resulting solution was then injected into the chromatographic system for assay.
Granular formulations of lansoprazole, including carbicarb were also made and tested. The stability of the granular formulations was tested according to the procedure of Example 3. The granular formulations of lansoprazole for this example were prepared as follows.
The coherent mass containing lansoprazole, carbicarb, lactose and sucrose solution was prepared as described above, in Example 3. This coherent mass was passed through a 20-mesh screen and the resulting granules were dried at 50° C. for 12 hours. Granules containing 30-mg lansoprazole were transferred to an amber color container along with and an equal weight of flavor granules. 10 ml of water ((HPLC grade, Fisher Scientific, Pittsburgh, Pa.) was added to the container with gentle shaking to reconstitute the suspension. The resulting suspension of lansoprazole was tested for stability in simulated gastric fluid as described earlier in Experiment 3.

[4] = 450 mL SGF and 50 mL test solution, ten times the 45 mL/5 mL values

Row | Structure (SMILES) | Volume of CO2 ([1]; 45 mL SGF and 5 mL test solution, initial minus residual gas volume) | Initial Gas Volume [1, 4] | Volume of CO2 [1, 4] | Volume of Acid Neutralizer Solution Required ([2]; pH after adding neutralizer 7.0) [mL] | Volume of Acid Neutralizer Solution Required ([2]; pH after adding neutralizer 8.0) [mL] | Volume of Acid Neutralizer Solution Required ([2]; pH of simulated gastric fluid after adding neutralizer 1.2) [mL] | % labeled amount of lansoprazole remaining ([3]; time in SGF 30 minutes) [%] | % labeled amount of lansoprazole remaining ([3]; time in SGF 45 minutes) [%] | % labeled amount of lansoprazole remaining ([3]; time in SGF 60 minutes) [%] | % of the drug degraded ([3]; constituted with carbicarb solution) [%] | % of the drug degraded ([3]; reconstituted with water) [%]
1 | O=C([O-])O.[Na+] [8.4% sodium bicarbonate solution, sodium bicarbonate] | 2.9 mL and 5.3 mL | 930.0 mL and 820.0 mL | 29.0 mL and 53.0 mL | 5.00 | 6.20 | 0 | – | – | – | – | –
2 | Cc1c(OCC(F)(F)F)ccnc1C[S+]([O-])c1nc2ccccc2[nH]1 (centres unmarked) [lansoprazole] | – | – | – | – | – | – | 4.1 | 2.7 | 2.0 | 3.5 | 98
